A short description of data set [1]: Storage stability of solid and aqueous solution. It counts as physicochemical. As for the experimental part:
Additionally, the peptides have greater shelf-life stability and solution stability due to the presence of fewer sensitive disulfide bonds (soricidin has 3 disulfide bonds). The peptides of the invention optionally have no disulfide bonds. An absence of disulfide bonds provides a very long shelflife during storage under minimal refrigeration or at room temperature as a solid. Additionally when the peptides of the invention with no disulfide bonds are dissolved in water, cleavage of disulfide bonds cannot occur. […] The formation of inter-peptide S—S bonds also results in precipitation of soricidin. The peptides of the invention, such as SorC13 and SorC27, are typically stable in aqueous solution at 8° C. for at least 3 weeks with no change in purity as measured by HPLC.
“Very stable” in the above table means that there was no observable degradation of the solid peptides over 6 months. As a solution in sterile water, the peptides are typically stable for at least 3 weeks at 8° C. and at −20° C., are expected to be stable more than 1 year.

The test system of data set [2] is MDA-MB-468 (MB 468) breast cancer cell line. Briefly: Induction of apoptosis (APO-ONE caspase 3/7) and cell viability (CellTiter Blue). As to conditions: SorC27. On the set-up: key: decreased (+); or not (−). In kind it is cell-based, human. As for the experimental part: MCF-7, MDA-MB-231, MDA-MB-415, MDA-MB-468 were grown in DMEM modified with 10% (v/v) fetal bovine serum, 2 mM L-glutamine and 50 ug/mL each of penicillin and streptomycin.
(§1) The levels of apoptotic induction and cell viability were determined by multiplexing the measurements for single samples. CellTiter Blue and APO-ONE assay systems from Promega allows the determination of cell viability correlated to cell number, and induction of apoptosis. This protocol uses a fluorgenic peptide that contains a peptide recognition-sequence for caspase 3 and caspase 7, […] proteolytic enzymes of the apoptosis cascade. The CellTiter Blue reagent was added to wells in a 96-well plate containing cells under test, immediately after addition of peptide solution or vehicle. About 5000 cells were plated into the wells the day before. At the chosen time (Day 1, Day 2 etc.) the fluorescence was measured at 590 nm (emission) after excitation at 560 nm. The caspase 3/7 activity was measured (485 nm Ex/527 nm Em) in the same wells after adding 120 uL of the Apo-ONE reagent, freeze fracturing at −80° C. for 1 hr, and incubating for 1 hr at room temperature.
For this work, the concentrations of SorC13 and SorC27 used were 0 uM, 1 uM, 10 uM and 100 uM. The experiments extended over a 5 to 7 day period. […]
(The colour change of resazurin is a common sign of viable cells or microbes.)

For data set [3], the system named is T 47D breast cancer cell line. The data set is described as above. The arrangement: key to Decline in cell viability: cell viability decreased (+); or not (−). It counts as cell-based, human. How it is done: T 47D was cultured in RPMI medium (Sigma-Aldrich) modified with 15% fetal bovine serum, 2 mM L-glutamine, 1 mM sodium pyruvate, 0.1 mg/mL bovine insulin and penicillin plus streptomycin mixture (50 ug/mL each).
as §1
For this work, the concentrations of SorC13 and SorC27 used were 0 uM, 1 uM, 10 uM and 100 uM. The experiments extended over a 5 to 7 day period. All measurements were done in quadruplicate with both a blank (no cells) and control (vehicle, no peptide) used to correct the test measurements. The time-response data, and the dose-response data were plotted as means±standard error of the mean. Any statistical comparisons were done with the Student's t-test or by ANOVA analysis over the dose course. The level of statistical significance was considered to be the 95% confidence interval (i.e., p≤0.05).
To benchmark the effect of both C-type peptides to the gold-standard treatment presently used against breast cancer (Paclitaxel), SorC13, SorC27 and Paclitaxel (10 uM) were compared. Both the APO-ONE assay (Promega) and the CellTiter Blue were used on the panel of breast cancer cell lines. The data were compared directly in terms of mean response and tested for significant difference.

Data set [4] relates to SKOV3 ovarian cancer xenografts. Description: SKOV3 ovarian cancer xenograft, SorC13 with CAT chemotherapy (Example 26). To be noted: day 12; SorC13 300 mg/kg i.p. Day 1 to 12. In kind it is in vivo, NOD/SCID mice. How it is done: SorC13 stock solutions were prepared by dissolving the appropriate amounts of the compound in physiologically buffered saline (pH 7.0 at 25° C.) to comprise a final solution to deliver 300 mg/Kg mouse. Stock solutions were prepared weekly, stored at −20° C. and diluted fresh each day for dosing. All solutions were filter sterilized with a 0.22 mu filter prior to further manipulation. The filter sterilizer units were pre-washed with a small volume of sterile distilled water. […]
To implant SKOV3 tumor cells into NOD/SCID mice, cell cultures were centrifuged to pellet the cells, the supernatant was aspirated, the cell pellet resuspended in 10 ml of growth media and the cell number was determined using a hemocytometer. […]
Tumor volumes (V) were calculated by caliper measurement using standard measurements of the width (W), length (L) and thickness (T) of tumors. […] Percentage ΔT/ΔC values, as a measure of efficacy, were determined where ΔC refers to change in volume of control or untreated tumor, and ΔT refers to change in volume of treated tumor.
Animals were intraperitoneally (i.p.) injected with the vehicular control, or the low, medium or high doses of CAT or CAT and SorC13. […] The tumor volume and body weights were measured every day. As well, general health of the animals was monitored every day.

The source of these data is patent publication US10058587B2, “Peptide composition for cancer treatment by inhibiting TRPV6 calcium channel activity” (priority 2008, dated 2018).

Where no end group is shown, it is not given here.

In the case of EGKLSSNDTEGGLCKEFLHPSKVDLPR [SorC27], in data set [1], the “Stability in aqueous solution @ −20° C.” value is listed as “Very stable”, the “Stability solid @ Room Temp.” value is “Very stable” and the “Stability solid @ −20° C.” value is recorded as “Very stable”. In addition, the “Decline in cell viability” value in data set [2] is “+”.

For the sequence KEFLHPSKVDLPR [SorC13, KEFLHPSKVDLPR], in data set [3] (SorC13 1 uM), the “Apoptosis Index (1 = no effect)” value turned out to be 2.0 and the “Decline in cell viability” value is given as “+”. In addition, in data set [3] (SorC13 10 uM), the “Apoptosis Index (1 = no effect)” value is listed as 2.8; the “Decline in cell viability” value is recorded as “+”; the “induction of apoptosis compared with Paclitaxel (10 uM)” value is “more effective at inducing a faster and more intense apoptotic response”. In data set [3] (SorC13 100 uM), the “Apoptosis Index (1 = no effect)” value was determined as 4.3 and the “Decline in cell viability” value is on record as “+”. Also, in data set [4], the “% ΔT/ΔC (tumour volume normalized to control volume)” value was determined as 47.6% and the Mean tumor volume amounted to 116.8 mm^3.
